Assay results taken from article PMC9283466, “In silico identification of two peptides with antibacterial activity against multidrug-resistant Staphylococcus aureus” (NPJ Biofilms and Microbiomes, 2022).
Converted amounts (≈) assume the structure as drawn. Bridge positions count the residues as written; N and C are the ends. Peptide text beside a SMILES is read from it.

Tests used:
B. cereus = experiment: microbe, parasite or virus in culture; format: cell-based, Bacillus cereus
Procedure: (§1) To determine the antimicrobial activity of the new antimicrobial peptides, HG2 and HG4, their minimum inhibitory concentrations (MICs) were determined by broth microdilution method[51] in cation adjusted Mueller Hinton broth (MHB) following the International Organisation for Standardisation (ISO) 20776-1 standard for MIC testing using a final bacterial inoculum of 5 × 10^5 CFU/ml[52]. […] The peptides dissolved in sterile distilled water were added to bacteria culture and incubated overnight at appropriate conditions. The MICs of the peptides and comparator antibiotics were recorded after 18–24 h. The minimum bactericidal concentrations (MBCs) were also determined and were taken as the lowest concentration of the antimicrobial that prevented the growth of bacterial cells after the subculture of cells (from MIC treatment) onto antibiotic-free media.

[1] = tested on: MRSA USA300 cytoplasmic membrane; format: cell-based, Staphylococcus aureus; conditions: for EC50 of membrane permeabilisation: USA300, 3 h
Procedure: Permeabilisation of the bacterial cytoplasmic membrane by HG2 and HG4 peptide was evaluated using the cell-impermeable DNA probe propidium iodide[14],[40]. Logarithmic-phase bacterial suspension of MRSA USA300 was prepared by diluting overnight cultures in fresh MHB (1 in 10 dilutions), incubated (3 h; 37 °C; 200 rpm), and pelleted by centrifugation (5 min; 3000×g). The bacterial cell pellet was then resuspended in sterile PBS at ~10^9 bacteria/ml. Propidium iodide (at 1 mg/ml, Sigma-Aldrich) was added to the bacterial suspension at a final concentration of 60 µM. This suspension (100 µl) was then transferred into black 96-well plates already containing 100 µl of serially diluted HG2 or HG4 peptide in PBS. Kinetics of fluorescence variations (excitation at 530 nm/emission at 590 nm) were then recorded using a microplate reader for a duration of 80 min with incubation at 37 °C. Cetyl trimethylammonium bromide (CTAB) (at 300 µM) served as positive control giving 100% permeabilisation. The permeabilisation effect of HG2 and HG4 were expressed as a percentage of total permeabilisation.

MRSA USA300 cells [2] = experiment: ATP depletion assay; format: cell-based, Staphylococcus aureus; conditions: P = 0.018 (HG2) and 0.003 (HG4)
Procedure: Adenosine triphosphate (ATP) drives many cellular and metabolic processes and can be used to ascertain the integrity of cells. […] Briefly, in a clear 96-well plate, samples and ATP standard provided with the kit were added in a reaction mix containing ATP assay buffer, ATP Probe and Converter and Developer mix. The reaction mix was incubated in the dark at room temperature for 30 min. Absorbance (570 nm0 was then measured in a microplate spectrophotometer. The background ATP levels obtained from samples and ATP standards were autocorrected by subtracting ATP levels from blank treatments. The amount of ATP in unknown samples was determined from the ATP standard curve and calculated using the formula in the instruction manual. All measurements were performed in triplicates.

[3] = tested on: eLUCidate Raw 264.7 NF-kB reporter cell line
MRSA USA300 cells [4] = experiment: Transmission electron microscopy; format: cell-based, Staphylococcus aureus; conditions: 3x MICs for 60 min
From the text: Transmission electron microscopy[14] was used to investigate the effects of HG2 and HG4 on MRSA USA300 cell morphology. […] They were then stained with 2% (w/v) uranyl acetate and Reynold’s lead citrate after which they were observed using a JEM1010 transmission electron microscope (JEOL Ltd, Tokyo, Japan) at 80 kV.

E. coli K12 = experiment: microbe, parasite or virus in culture; format: cell-based, Escherichia coli; conditions: K12
Procedure: as §1

[5] = Peptide-lipid interaction and insertion, lipid monolayer; format: binding, Staphylococcus aureus; conditions: MRSA extract; initial surface pressure 30+/-0.5 mN/m
Procedure: Peptide–lipid interaction was measured using a lipid monolayer formed at the air:water interface with total lipid extracts and pure lipids. Total lipids were extracted from overnight cultures of MRSA or human erythrocytes using the Folch extraction procedure[14],[40]. Extracted total lipids were dried, re-solubilised in chloroform:methanol (2:1, v/v) and stored at −20 °C under nitrogen. […] The variation of the surface pressure caused by peptide insertion was then continuously monitored using a fully automated microtensiometer (µTROUGH SX, Kibron Inc, Finland) until it reached equilibrium (maximal surface pressure increase is usually obtained after 15–25 min). […] In other experiments, the critical pressure of insertion of HG2 or HG4 in the total lipid extracts and pure lipids was measured as follows[14],[56]. Briefly, in these experiments, the initial pressure of the lipid monolayer was set up at different values (between 10 and 30 mN/m) and the variation of pressure caused by the injection of the peptide was measured. […] All experiments were carried out in a controlled atmosphere at 20 ± 1 °C and data were analyzed using the Firmware 2.5 programme (Kibron Inc.). The accuracy of the system under our experimental conditions was determined to be ±0.25 mN/m for surface pressure measurements.

S. aureus ATCC 33591 = experiment: microbe, parasite or virus in culture; format: cell-based, Staphylococcus aureus; conditions: ATCC 33591
Procedure: as §1

S. aureus EMRSA-15 = experiment: microbe, parasite or virus in culture; format: cell-based, Staphylococcus aureus; conditions: EMRSA-15
Procedure: as §1

[6] = tested on: S. aureus USA300 BAA-1717; experiment: microbe, parasite or virus in culture; format: cell-based, Staphylococcus aureus; conditions: USA300
Procedure: as §1

Structure (SMILES) | MIC (B. cereus) | EC50 of membrane permeabilisation [1] | permeabilisation at 1 min ([1]; at MIC concentration) | effect on ATP concentration (MRSA USA300 cells [2]) | toxicity against reporter cell line (resazurin assay) [3] | cell morphology by TEM (MRSA USA300 cells [4]) | MIC (E. coli K12) | Speed of insertion [5] | MIC (S. aureus ATCC 33591) | MIC (S. aureus EMRSA-15) | MIC [6]
CC[C@H](C)[C@H](NC(=O)[C@H](CC(C)C)NC(=O)[C@H](CC(C)C)NC(=O)[C@H](CC(C)C)NC(=O)[C@H](CCCCN)NC(=O)[C@H](CCCCN)NC(=O)[C@@H](N)CCSC)C(=O)N[C@@H](CC(C)C)C(=O)N[C@@H](Cc1ccccc1)C(=O)N[C@H]1CSSC[C@@H](C(=O)N[C@@H](CCCCN)C(=O)N[C@@H](CCCCN)C(=O)N[C@@H](C)C(=O)N2CCC[C@H]2C(N)=O)NC(=O)CNC(=O)[C@H](C)NC(=O)[C@H](CC(C)C)NC(=O)[C@H](C)NC(=O)[C@H](CC(C)C)NC(=O)[C@H](C)NC(=O)[C@H](CC(C)C)NC1=O [HG2] (H-MKKLLLILFCLALALAGCKKAP-NH2; disulfide 10-18; N-terminus assumed) | 256 µg/mL (≈ 109 µM) | 1.351 ± 0.27 µg/mL | 80% | decrease in ATP concentration | no toxicity | changes in cell morphology and some cytoplasmic damage | 256 µg/mL (≈ 109 µM) | 3.36 mN/m/10 sec | 64 µg/mL (≈ 27.2 µM) | 32 µg/mL (≈ 13.6 µM) | 16 µg/mL (≈ 6.79 µM)
CC[C@H](C)[C@H](NC(=O)[C@H](CC(C)C)NC(=O)[C@H](CC(C)C)NC(=O)[C@H](C)NC(=O)CNC(=O)CNC(=O)[C@@H](NC(=O)[C@@H](NC(=O)[C@H](CC(C)C)NC(=O)[C@H](C)NC(=O)[C@H](CC(C)C)NC(=O)CNC(=O)[C@H](CC(C)C)NC(=O)[C@@H](N)C(C)C)[C@@H](C)CC)C(C)C)C(=O)N[C@@H](CCCCN)C(=O)N[C@@H](CCCCN)C(=O)N[C@@H](CCCCN)C(=O)N[C@@H](CCC(N)=O)C(=O)N[C@@H](C)C(=O)N[C@@H](CCCCN)C(=O)N[C@@H](CO)C(N)=O [HG4] (H-VLGLALIVGGALLIKKKQAKS-NH2; N-terminus and C-terminus assumed) | 512 µg/mL (≈ 242 µM) | 13.85 ± 3.22 µg/mL |  | decrease in ATP concentration | no toxicity | changes in cell morphology and some cytoplasmic damage | 512 µg/mL (≈ 242 µM) | 1.69 mN/m/10 sec | 32 µg/mL (≈ 15.1 µM) | 32 µg/mL (≈ 15.1 µM) | 32 µg/mL (≈ 15.1 µM)
